Experimental data as given in ChEMBL document CHEMBL1201862, “PubChem BioAssay data set” (2004).
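Compound exposure: 48 hours, 5 concentrations, 96-well plates. The concentration for 50% growth inhibition is given as GI50.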 The source made the active and inactive calls. No stated cut-off is given here; in the data, active = GI50 up to about 1.1 µM and inactive = higher.

Legend:
Assay in all cases: inhibition of tumour cell growth, NCI panel, 48 h
HOP-62 = system: HOP-62
NCI-H23 = system: NCI-H23
ACHN = system: ACHN
Hs-578T = system: Hs-578T
MDA-MB-435 = system: MDA-MB-435
Malme-3M = system: Malme-3M
CCRF-CEM = system: CCRF-CEM
NCI-H460 = system: NCI-H460
A498 = system: A498
TK-10 = system: TK-10
SF-268 = system: SF-268
MOLT-4 = system: MOLT-4
NCI/ADR-RES = system: NCI/ADR-RES
786-0 = system: 786-0
SNB-75 = system: SNB-75
M14 = system: M14
CAKI-1 = system: CAKI-1
SF-295 = system: SF-295
UACC-62 = system: UACC-62
EKVX = system: EKVX
HCT-15 = system: HCT-15
K562 = system: K562
OVCAR-4 = system: OVCAR-4
SK-MEL-5 = system: SK-MEL-5
SW-620 = system: SW-620
HCC 2998 = system: HCC 2998
UACC-257 = system: UACC-257
COLO 205 = system: COLO 205
OVCAR-5 = system: OVCAR-5
A549 = system: A549
SNB-19 = system: SNB-19
SK-MEL-2 = system: SK-MEL-2
SK-MEL-28 = system: SK-MEL-28
U-251 = system: U-251
HT-29 = system: HT-29
NCI-H226 = system: NCI-H226
HOP-92 = system: HOP-92
RXF 393 = system: RXF 393
KM12 = system: KM12
HCT-116 = system: HCT-116
PC-3 = system: PC-3
BT-549 = system: BT-549
OVCAR-8 = system: OVCAR-8
SK-OV-3 = system: SK-OV-3
MDA-MB-231 = system: MDA-MB-231
NCI-H522 = system: NCI-H522
UO-31 = system: UO-31
HL-60 = system: HL-60
SF-539 = system: SF-539
OVCAR-3 = system: OVCAR-3
MCF7 = system: MCF7
SR = system: SR
IGROV-1 = system: IGROV-1
SN12C = system: SN12C
DU-145 = system: DU-145
RPMI-8226 = system: RPMI-8226
LOX IMVI = system: LOX IMVI
T47D = system: T47D

For `COc1ccc2nc(-c3ccc(N)cc3)sc2c1`, the GI50 (HOP-62) was 42.2 µM (inactive), the GI50 (NCI-H23) was > 100 µM (inactive) and the GI50 (ACHN) was 51.6 µM (inactive). The GI50 (Hs-578T) was 34.6 µM (inactive), the GI50 (MDA-MB-435) was > 100 µM (inactive) and the GI50 (Malme-3M) was > 100 µM (inactive). For the same compound, the GI50 (CCRF-CEM) was 4.89 µM (inactive), the GI50 (NCI-H460) was 54 µM (inactive) and the GI50 (A498) was 53.1 µM (inactive). For the same compound, the GI50 (TK-10) was > 100 µM (inactive), the GI50 (SF-268) was 63.2 µM (inactive) and the GI50 (MOLT-4) was 13.6 µM (inactive). For the same compound, the GI50 (NCI/ADR-RES) was > 100 µM (inactive), the GI50 (786-0) was 43.9 µM (inactive) and the GI50 (SNB-75) was 44.8 µM (inactive). For the same compound, the GI50 (M14) was > 100 µM (inactive), the GI50 (CAKI-1) was > 100 µM (inactive) and the GI50 (SF-295) was 43.1 µM (inactive). The GI50 (UACC-62) was > 100 µM (inactive), the GI50 (EKVX) was 32.1 µM (inactive) and the GI50 (HCT-15) was 50.5 µM. The GI50 (K562) was > 100 µM (inactive), the GI50 (OVCAR-4) was > 100 µM (inactive) and the GI50 (SK-MEL-5) was 61.4 µM (inactive). The GI50 (SW-620) was > 100 µM (inactive), the GI50 (HCC 2998) was 42 µM (inactive) and the GI50 (UACC-257) was > 100 µM (inactive). For the same compound, the GI50 (COLO 205) was > 100 µM (inactive), the GI50 (OVCAR-5) was > 100 µM (inactive) and the GI50 (A549) was 68.1 µM (inactive). For the same compound, the GI50 (SNB-19) was 18.5 µM (inactive), the GI50 (SK-MEL-2) was > 100 µM (inactive) and the GI50 (SK-MEL-28) was > 100 µM (inactive). The GI50 (U-251) was 35.6 µM (inactive), the GI50 (HT-29) was 66.5 µM (inactive) and the GI50 (NCI-H226) was 34.2 µM (inactive). The GI50 (HOP-92) was > 100 µM (inactive), the GI50 (RXF 393) was > 100 µM (inactive) and the GI50 (KM12) was 22.3 µM (inactive). The GI50 (HCT-116) was > 100 µM (inactive), the GI50 (PC-3) was 48 µM (inactive) and the GI50 (BT-549) was > 100 µM (inactive). For the same compound, the GI50 (OVCAR-8) was 52.5 µM (inactive), the GI50 (SK-OV-3) was > 100 µM (inactive) and the GI50 (MDA-MB-231) was 81.8 µM (inactive). The GI50 (NCI-H522) was 23.6 µM (inactive), the GI50 (UO-31) was 29.4 µM (inactive) and the GI50 (HL-60) was 47.5 µM (inactive). The GI50 (SF-539) was > 100 µM (inactive), the GI50 (OVCAR-3) was > 100 µM (inactive) and the GI50 (MCF7) was > 100 µM (inactive). The GI50 (SR) was 32.4 µM (inactive) and the GI50 (IGROV-1) was 70.5 µM (inactive).
For `CN(C)C(=S)S` [SODIUM DIMETHYLCARBAMODITHIOATE], the GI50 (NCI-H23) was > 50.8 µM (inactive), the GI50 (ACHN) was > 71 µM (inactive) and the GI50 (Hs-578T) was > 100 µM (inactive). For the same compound, the GI50 (MDA-MB-435) was > 78 µM (inactive), the GI50 (Malme-3M) was > 43.8 µM (inactive) and the GI50 (NCI-H460) was 4.68 µM (inactive). The GI50 (A498) was > 100 µM (inactive), the GI50 (TK-10) was > 100 µM (inactive) and the GI50 (SF-268) was > 100 µM (inactive). The GI50 (MOLT-4) was 35.4 µM (inactive), the GI50 (NCI/ADR-RES) was > 100 µM (inactive) and the GI50 (786-0) was > 70 µM (inactive). The GI50 (SNB-75) was > 85.5 µM (inactive), the GI50 (M14) was > 100 µM (inactive) and the GI50 (CAKI-1) was 63.1 µM (inactive). The GI50 (SN12C) was 80 µM (inactive), the GI50 (SF-295) was > 80.2 µM (inactive) and the GI50 (UACC-62) was > 100 µM (inactive). For the same compound, the GI50 (EKVX) was > 94.6 µM (inactive), the GI50 (HCT-15) was greater than 76 µM and the GI50 (K562) was 2.44 µM (inactive). The GI50 (OVCAR-4) was 36.9 µM (inactive), the GI50 (SK-MEL-5) was 4.14 µM (inactive) and the GI50 (SW-620) was > 59.7 µM (inactive). For the same compound, the GI50 (HCC 2998) was 20.1 µM (inactive), the GI50 (UACC-257) was > 100 µM (inactive) and the GI50 (COLO 205) was 27.9 µM (inactive). The GI50 (DU-145) was > 95.7 µM (inactive), the GI50 (OVCAR-5) was > 100 µM (inactive) and the GI50 (A549) was > 100 µM (inactive). For the same compound, the GI50 (SNB-19) was > 100 µM (inactive), the GI50 (SK-MEL-2) was 18.1 µM (inactive) and the GI50 (RPMI-8226) was 17.5 µM (inactive). For the same compound, the GI50 (SK-MEL-28) was > 64.4 µM (inactive), the GI50 (U-251) was 98.6 µM (inactive) and the GI50 (HT-29) was 11.5 µM (inactive). The GI50 (NCI-H226) was > 100 µM (inactive), the GI50 (HOP-92) was > 100 µM (inactive) and the GI50 (RXF 393) was 83.9 µM (inactive). For the same compound, the GI50 (KM12) was > 25.2 µM (inactive), the GI50 (HCT-116) was 25.5 µM (inactive) and the GI50 (PC-3) was 3.37 µM (inactive). The GI50 (BT-549) was > 100 µM (inactive), the GI50 (OVCAR-8) was > 52.5 µM (inactive) and the GI50 (SK-OV-3) was > 100 µM (inactive). For the same compound, the GI50 (MDA-MB-231) was 43.6 µM (inactive), the GI50 (LOX IMVI) was 34.4 µM (inactive) and the GI50 (NCI-H522) was 0.194 µM (active). The GI50 (UO-31) was 56.4 µM (inactive), the GI50 (HL-60) was 1.33 µM (inactive) and the GI50 (SF-539) was > 100 µM (inactive). For the same compound, the GI50 (OVCAR-3) was 0.305 µM (active), the GI50 (MCF7) was > 100 µM (inactive) and the GI50 (T47D) was > 100 µM (inactive). For the same compound, the GI50 (IGROV-1) was 2.23 µM (inactive).
